# Data reported in patent US6867207B2, “IL-5 inhibiting 6-azauracil derivatives” (Janssen Pharmaceutica N.V., priority 1997, dated 2005).
# Marks after values point to notes of the source that are not given here.
# Tested on: IL-5 production
# Assay: In vitro inhibition of IL-5 production in human blood (phytohemagglutinin-stimulated whole blood, ELISA)
# Type: cell-based
# Details: test dose 1×10^−5 M (values marked *), 48 hours
# Procedure: In Vitro Inhibition of IL-5 Production in Human Blood
# Human Whole Blood Stimulation
# Peripheral blood from healthy male donors was drawn into heparinized syringes (12.5 U heparin/ml). Blood samples were three-fold diluted in RMPI 1640 medium (Life Technologies, Belgium) supplemented with 2 mM L-glutamine, 100 U/ml penicillin and 100 μg/ml streptomycin, and 300 μl fractions were distributed in 24-well multidisc plates. Blood samples were preincubated (60 minutes at 37° C.) in a humidified 6% CO2-atmosphere with 100 μl of drug solvent (final concentration 0.02% dimethylsulfoxide in RPMI 1640) or with 100 μl of an appropriate dose of test compound before being stimulated by the addition of 100 μl of phytohemagglutinin HA17 (Murex, UK) at a final concentration of 2 μg/ml. After 48 hours, cell-free supernatant fluids were collected by centrifugation and stored at −70° C. until tested for the presence of IL-5.
# IL-5 measurements were conducted as described in Van Wauwe et al. (1996, Inflamm Res, 45, 357-363) on page 358 using ELISA.
# Table 9 lists the percentage inhibition of IL-5 production (column “% inh”) at a test dose of 1×10^−6 M, or in case the percentage inhibition is marked with an “*” 1×10^−5 M, the compounds of the present invention.
row,Structure (SMILES),"% inh. (percentage inhibition of IL-5 production), marked with *"
1,Cn1cnnc1SC(c1ccc(Cl)cc1)c1ccc(-n2ncc(=O)[nH]c2=O)cc1Cl (racemic) [Compound 53],53* %

# Same assay, conditions: test dose 1×10^−5 M (values marked *), 48 hours, read-out: % inh. (percentage inhibition of IL-5 production), marked with *
row,Structure (SMILES),inhibition at 10 µM
1,"O=c1cnn(-c2ccc(C(c3ccc(Cl)cc3)N3CCC(O)CC3)c(Cl)c2)c(=O)[nH]1 (racemic) [Compound 119, (±)-2-[3-chloro-4-[(4-chlorophenyl)(4-hydroxy-1-piperidinyl)methyl]phenyl]-1,2,4-triazine-3,5(2H,4H)-dione]",72%

# Same assay, conditions: test dose 1×10^−6 M, 48 hours
row,Structure (SMILES),% inh. (percentage inhibition of IL-5 production)
1,O=c1cnn(-c2ccc(C(SCc3ccc(Cl)cc3)c3ccc(Cl)cc3)c(Cl)c2)c(=O)[nH]1 (racemic) [Compound 67],69%
2,O=c1cnn(-c2cc(Cl)c(C(Sc3cscn3)c3ccc(Cl)c(C(F)(F)F)c3)c(Cl)c2)c(=O)[nH]1 (centres unmarked) [Compound 387],93%
3,O=c1cnn(-c2cc(Cl)c(C(c3ccc(Cl)cc3)c3sc(-c4ccccc4)nc3-c3ccccc3Cl)c(Cl)c2)c(=O)[nH]1 (racemic) [Compound 145],37%
4,O=c1cnn(-c2cc(Cl)c(C(Sc3ncccn3)c3ccc(Cl)cc3)c(Cl)c2)c(=O)[nH]1 (racemic) [Compound 340],88%
5,O=c1cnn(-c2cc(Cl)c(C(c3ccc(Cl)cc3)c3csc(-c4ccccc4F)n3)c(Cl)c2)c(=O)[nH]1 (racemic) [Compound 364],95%
6,Cc1c(NS(N)(=O)=O)cccc1-c1nnc(C(c2ccc(Cl)cc2)c2c(Cl)cc(-n3ncc(=O)[nH]c3=O)cc2Cl)o1 (racemic) [Compound 218],4%
7,O=c1cnn(-c2ccc(C(c3ccc(Cl)cc3)c3nc4sccn4c3-c3ccccc3)c(Cl)c2)c(=O)[nH]1 (centres unmarked) [Comp 432],82%
8,O=c1cnn(-c2cc(Cl)c(C(c3ccc(Cl)cc3)c3nnc(-c4ccccn4)o3)c(Cl)c2)c(=O)[nH]1 (racemic) [Compound 169],81%
9,"Cl.O=c1cnn(-c2cc(Cl)c(C(c3ccc(Cl)cc3)c3nc(C4CCNCC4)cs3)c(Cl)c2)c(=O)[nH]1 (racemic) [Compound 230, (±)-2-[3,5-dichloro-4-[(4-chlorophenyl)[4-(4-piperidinyl)-2-thiazolyl]methyl]phenyl]-1,2,4-triazin-3,5-(2H,4H)-dione monohydrochloride]",79%
10,O=c1cnn(-c2cc(Cl)c(C(c3ccc(Cl)cc3)c3ccccn3)c(Cl)c2)c(=O)[nH]1 (centres unmarked) [Comp 115],71%
11,O=c1cnn(-c2ccc(C(Sc3nc4cccnc4s3)c3ccc(Cl)cc3)c(Cl)c2)c(=O)[nH]1 (racemic) [Compound 81],76%
12,O.O=c1cnn(-c2cc(Cl)c(C(c3ccc(Cl)cc3)c3nnc(-c4ccccc4Cl)o3)c(Cl)c2)c(=O)[nH]1 (racemic) [Compound 163],90%
13,Cc1sc(C(c2ccc(Cl)cc2)c2c(Cl)cc(-n3ncc(=O)[nH]c3=O)cc2Cl)nc1-c1ccccc1F (racemic) [Comp 259],95%
14,"O=c1cnn(-c2ccc(C(c3ccc(Cl)cc3)c3nc(-c4ccccc4)no3)c(Cl)c2)c(=O)[nH]1 (racemic) [Compound 125, (±)-2-[(3-chloro-4-[(4-chlorophenyl)(3-phenyl-1,2,4-oxadiazol-5-yl)methyl]phenyl]-1,2,4-triazine-3,5(2H,4H)-dione]",52%
15,Cc1ccc2[nH]c(SC(c3ccc(Cl)cc3)c3ccc(-n4ncc(=O)[nH]c4=O)cc3Cl)nc2c1 (racemic) [Compound 62],30%
16,O=c1cnn(-c2cc(Cl)c(C(Sc3nc4cccnc4s3)c3ccc(Cl)cc3)c(Cl)c2)c(=O)[nH]1 (centres unmarked) [Compound 376],92%
17,Cc1cc(C)nc(SC(c2ccc(Cl)cc2)c2ccc(-n3ncc(=O)[nH]c3=O)cc2Cl)n1 (racemic) [Compound 66],64%
18,"O=c1cnn(-c2cc(Cl)c(C(CSc3ccccn3)c3ccc(Cl)cc3)c(Cl)c2)c(=O)[nH]1 (racemic) [Compound 422, (±)-2-[3,5-dichloro[1-(4-chlorophenyl)-2-(2-pyridinylthio)ethyl]phenyl-1,2,4-triazine-3,5(2H,4H)-dione]",87%
19,O=c1cnn(-c2cc(Cl)c(C(Sc3nc(-c4ccccc4)no3)c3ccc(Cl)c(C(F)(F)F)c3)c(Cl)c2)c(=O)[nH]1 (racemic) [Compound 404],92%
20,Cc1nc(C(c2ccc(Cl)cc2)c2ccc(-n3ncc(=O)[nH]c3=O)cc2Cl)c(-c2ccccc2)s1 (racemic) [Compound 369],66%

row,Structure (SMILES),% inh. (percentage inhibition of IL-5 production)
1,CCOC(=O)N1CCC(Nc2ccnc(SC(c3ccc(Cl)cc3)c3c(Cl)cc(-n4ncc(=O)[nH]c4=O)cc3Cl)n2)CC1 (racemic) [Compound 351],62%
2,CN(C)Cc1sc(C(c2ccc(Cl)cc2)c2c(Cl)cc(-n3ncc(=O)[nH]c3=O)cc2Cl)nc1-c1cccc(F)c1 (racemic) [Comp 280],96%
3,COCCNC(=O)c1sc(C(c2ccc(Cl)cc2)c2c(Cl)cc(-n3ncc(=O)[nH]c3=O)cc2Cl)nc1-c1ccccc1 (racemic) [Comp 307],78%
4,CC(c1ccc(Cl)c(C(F)(F)F)c1)(c1nnc(-c2ccccc2)o1)c1ccc(-n2ncc(=O)[nH]c2=O)cc1Cl (racemic) [Compound 155],80%
5,Cc1sc(C(c2ccc(Cl)c(C(F)(F)F)c2)c2c(Cl)cc(-n3ncc(=O)[nH]c3=O)cc2Cl)nc1-c1ccccc1 (racemic) [Comp 246],94%
6,O=c1cnn(-c2cc(Cl)c(C(c3ccc(Cl)cc3)c3nc(-c4ccccc4)c(COC4CCCCC4)s3)c(Cl)c2)c(=O)[nH]1 (racemic) [Comp 310],79%
7,COc1cc(-n2ncc(=O)[nH]c2=O)ccc1C(C)(c1ccc(Cl)c(C(F)(F)F)c1)c1nc(-c2ccccc2)cs1 (racemic) [Comp 255],67%
8,Cc1cc(-n2ncc(=O)[nH]c2=O)cc(C)c1C(c1ccc(Cl)c(Cl)c1)c1nc(-c2ccccc2)c(C)s1 (racemic) [Comp 271],88%
9,COC(C)c1sc(C(c2ccc(Cl)cc2)c2c(Cl)cc(-n3ncc(=O)[nH]c3=O)cc2Cl)nc1-c1ccccc1 (mixture of isomers) [Comp 315],93%
10,CCOC(=O)N1CCN(c2ccnc(SC(c3ccc(Cl)cc3)c3c(Cl)cc(-n4ncc(=O)[nH]c4=O)cc3Cl)n2)CC1 (racemic) [Compound 352],85%
11,Nc1ccnc(SC(c2ccc(Cl)cc2)c2ccc(-n3ncc(=O)[nH]c3=O)cc2Cl)n1 (racemic) [Compound 343],66%
12,CCOC(=O)N1CCC(NC(=S)Nc2cccc(-c3nnc(C(c4ccc(Cl)cc4)c4c(Cl)cc(-n5ncc(=O)[nH]c5=O)cc4Cl)o3)c2)CC1 (racemic) [Compound 220],25%
13,CCOC(=O)c1cnc(SC(c2ccc(Cl)cc2)c2ccc(-n3ncc(=O)[nH]c3=O)cc2Cl)nc1O (racemic) [Compound 339],35%
14,CCOCCc1nnc(C(c2ccc(Cl)cc2)c2c(Cl)cc(-n3ncc(=O)[nH]c3=O)cc2Cl)o1 (racemic) [Compound 181],55%
15,CN(C)Cc1sc(C(c2ccc(Cl)cc2)c2c(Cl)cc(-n3ncc(=O)[nH]c3=O)cc2Cl)nc1-c1ccccc1 (racemic) [Comp 253],96%
16,O=C(O)Cc1sc(C(c2ccc(Cl)cc2)c2c(Cl)cc(-n3ncc(=O)[nH]c3=O)cc2Cl)nc1-c1ccccc1 (racemic) [Comp 300],27%
17,Cc1sc(C(C)(c2ccc(Cl)c(C(F)(F)F)c2)c2c(Cl)cc(-n3ncc(=O)[nH]c3=O)cc2Cl)nc1-c1ccccc1 (racemic) [Comp 234],83%
18,CCOC(=O)Cc1nnc(C(c2ccc(Cl)cc2)c2c(Cl)cc(-n3ncc(=O)[nH]c3=O)cc2Cl)o1 (racemic) [Compound 176],3%
19,O=c1cnn(-c2cc(Cl)c(C(c3ccc(Cl)cc3)c3nc(-c4ccccc4)c(C4CCCCC4)s3)c(Cl)c2)c(=O)[nH]1 (racemic) [Comp 284],91%
20,CS(=O)(=O)O.O.O.O=c1cnn(-c2cc(Cl)c(C(Sc3nccc(N4CCOCC4)n3)c3ccc(Cl)cc3)c(Cl)c2)c(=O)[nH]1 (racemic) [Compound 344],82%

# Same assay, conditions: test dose 1×10^−6 M, 48 hours, read-out: % inh. (percentage inhibition of IL-5 production)
row,Structure (SMILES),inhibition at 1 µM
1,"O=c1cnn(-c2cc(Cl)c(C(Nc3ncccn3)c3ccc(Cl)cc3)c(Cl)c2)c(=O)[nH]1 (racemic) [Compound 413, (±)-2-[3,5-dichloro-4-[(4-chlorophenyl)[(2-pyrimidinyl)amino]-methyl]phenyl]-1,2,4-triazine-3,5(2H,4H)-dione]",59%
2,"O=c1cnn(-c2ccc(C(c3ccc(Cl)cc3)c3cccnc3)c(Cl)c2)c(=O)[nH]1 (racemic) [Compound 124, (±)-2-[3-chloro-4-[(4-chlorophenyl)-3-pyridinylmethyl]phenyl]-1,2,4-triazine-3,5(2H,4H)-dione]",42%
